Assay results from patent publication US11673876B2, “Substituted aminobenzyl heteroaryl compounds as EGFR and/or PI3K inhibitors” (Mekanistic Therapeutics LLC, priority 2020, dated 2023).

Tests used:
[1] = Pharmacokinetics in dogs, single IV or oral administration; type: in vivo, dog; conditions: for C0 / half-life / Cmax / Tmax: blood; for C0 / half-life / Cmax / Tmax / Cl_obs / F: dog
Method: (§1) The pharmacokinetics of Compound 2R (HCl salt) and Comparative Compound 2 were studied following a single intravenous and/or oral administration to mice, dogs, and monkeys (n=3 for all species). The IV and PO solution formulations for Comparative Compound 2 contained 20% (w/v) propylene glycol, 75% (w/v) 50 mM trisodium phosphate (pH 12), and 5% (w/v) Kolliphor EL. The formulation for Compound 2R contained 1:2 propylene glycol: 1% Tween 80/Na3PO4 (50 mM). Subsequent pharmacokinetic data analysis was performed using non-compartmental analysis modules in Phoenix/WINNONLIN 6.3 (Pharsight, St. Louis, Mo., USA), and the linear trapezoidal rule was used for AUC calculation. Terminal elimination half-life (t½) was calculated based on data points (≥3) in the terminal phase; Tmax=Time of maximum observed concentration; AUClast/D=Area under the concentration-time curve from time zero to the last observed concentration/divided by dose; Cl_obs=Total body clearance; Cmax=maximum observed concentration; F=bioavailability of oral dose form. Blood samples were assayed for compounds using protein precipitation with acetonitrile followed by HPLC/MS/MS analysis. Blood concentration-time data were analyzed by non-compartmental methods.

[2] = Pharmacokinetics in mice, single IV or oral administration; type: in vivo, mouse; conditions: for C0 / half-life / Cmax / Tmax: blood; for C0 / half-life / Cmax / Tmax / Cl_obs / F: mouse
Method: as §1

[3] = Pharmacokinetics in monkeys, single IV or oral administration; type: in vivo, monkey; conditions: for C0 / half-life / Cmax / Tmax: blood; for C0 / half-life / Cmax / Tmax / Cl_obs / F: monkey
Method: as §1

[4] = system: human HCC-70 (triple negative breast cancer); test: HCC-70 xenograft study in NCR nude mice; type: in vivo
Method: (§2) Xenograft Studies. Female NCR nude mice (CrTac:NCr-Foxn1nu from Taconic), 6-7 weeks old, were implanted subcutaneously with 5×10^6 cells in a 1:1 serum-free media/Matrigel® mixture into the region of the right axilla. Mice were randomized into treatment groups and treatments initiated when tumors reached 100 to 200 mg. Compound 2R was administered daily by oral gavage as a fine suspension in 1:2 propylene (glycol in 1% Tween80/Na3PO4 based upon individual animal body weight (0.2 mL/20 g). Subcutaneous tumor volume and body weights were measured two to three times a week. Tumor volumes were calculated by measuring two perpendicular diameters with calipers and using the formula: tumor volume=(length×width2)/2. Individual mice were dosed daily until their tumor burden reached 500 mg for the CAL-27 and HCC-70 models or 1000 mg for the CAL-33 model, to allow for calculation of increase in progression-free survival. Percent increase in survival was calculated by comparing the median time to reach either 500 mg or 1000 mg in the treated group versus the vehicle control group. A complete response (CR) is defined as a tumor below the limits of palpation (<40 mg).
(§3) FIGS. 1-3 show the performance of Compound 2R in controlling tumor size. […] Tumor growth curves as well as survival and objective response data are summarized in the accompanying FIGS. 1-3 and the table below.

[5] = system: PIK3CA mutant human CAL-33 (squamous head and neck cancer); test: CAL-33 xenograft study in NCR nude mice; type: in vivo; conditions: for Median Increase In Survival: time to 1000 mg vs vehicle
Method: as §2, §3

[6] = Tolerability in the xenograft studies; type: in vivo; conditions: highest dose tested 100 mg/kg, daily dosing over >50 days
Method: as §2, §3

[7] = system: human CAL-27 (squamous head and neck cancer); test: CAL-27 xenograft study in NCR nude mice; type: in vivo; conditions: time to 500 mg vs vehicle
Method: as §2, §3

[8] = system: PI3K gamma mutant human CAL-27 (squamous head and neck cancer); test: CAL-27 xenograft study in NCR nude mice; type: in vivo; conditions: CAL-27 model
Method: as §2, §3

CS(=O)(=O)Nc1cc(-c2ccc3ncnc(Nc4ccc(F)c(Cl)c4)c3c2)cnc1Cl [Comparative Compound 2, reference compound]
C0 ([1]; 1 mg/kg, IV, 1 mpk): 5490 ng/mL | half-life ([1]; 1 mg/kg, IV, 1 mpk): 42 min | Cmax ([1]; 5 mg/kg, oral, 5 mpk): 716 ng/mL | Tmax ([1]; 5 mg/kg, oral, 5 mpk): 2 h | half-life ([1]; 5 mg/kg, oral, 5 mpk): 48 min | Cl_obs ([1]; IV, 1 mpk): 10.50 mL/min/kg | F ([1]; oral, 5 mpk): 25% | C0 ([2]; 10 mg/kg, IV, 10 mpk): 25600 ng/mL | half-life ([2]; 10 mg/kg, IV, 10 mpk): 72 min | Cmax ([2]; 10 mg/kg, oral, 10 mpk): 8270 ng/mL | Tmax ([2]; 10 mg/kg, oral, 10 mpk): 1 h | half-life ([2]; 10 mg/kg, oral, 10 mpk): 84 min | Cl_obs ([2]; IV, 10 mpk): 3.3 mL/min/kg | F ([2]; oral, 10 mpk): 63% | C0 ([3]; 1 mg/kg, IV, 1 mpk): 5910 ng/mL | half-life ([3]; 1 mg/kg, IV, 1 mpk): 66 min | Cmax ([3]; 10 mg/kg, oral, 10 mpk): 110 ng/mL | Tmax ([3]; 10 mg/kg, oral, 10 mpk): 1 h | half-life ([3]; 10 mg/kg, oral, 10 mpk): 120 min | Cl_obs ([3]; IV, 1 mpk): 15.71 mL/min/kg | F ([3]; oral, 10 mpk): 3%

C[C@@H](Nc1ncnc2ccc(-c3cnc(Cl)c(NS(C)(=O)=O)c3)cc12)c1ccccc1 [Compound 2R, N-(2-chloro-5-(4-((1R-phenylethyl)amino)quinazolin-6-yl)pyridin-3-yl)methanesulfonamide]
Median Increase In Survival ([4]; HCC-70, 100 mg/kg daily oral gavage, time to 500 mg vs vehicle): 363% | single agent activity (tumor growth) ([4]; HCC-70 model): Single agent activity of Compound 2R was demonstrated | Median Increase In Survival ([5]; CAL-33, 25 mg/kg daily oral gavage): >700% | Median Increase In Survival ([5]; CAL-33, 50 mg/kg daily oral gavage): >700% | Median Increase In Survival ([5]; CAL-33, 100 mg/kg daily oral gavage): >700% | single agent activity (tumor growth) ([5]; CAL-33 model): Single agent activity of Compound 2R was demonstrated | tolerability (body weight loss, clinical signs) [6]: well tolerated at the highest dose tested (100 mg/kg) with no signs of body weight loss or other clinical signs | C0 ([1]; 1 mg/kg, IV, 1 mpk): 7150 ng/mL | half-life ([1]; 1 mg/kg, IV, 1 mpk): 624 min | Cmax ([1]; 5 mg/kg, oral, 5 mpk): 7090 ng/mL | Tmax ([1]; 5 mg/kg, oral, 5 mpk): 2 h | half-life ([1]; 5 mg/kg, oral, 5 mpk): 720 min | Cl_obs ([1]; IV, 1 mpk): 0.52 mL/min/kg | F ([1]; oral, 5 mpk): 48% | increase in exposure (AUClast/D) compared to Comparative Compound 2 ([1]; dogs, dosed intravenously): ~15 fold | improvement in exposure (AUClast/D) relative to Comparative Compound 2 ([1]; dogs, oral): > 28 fold | Median Increase In Survival ([7]; CAL-27, 10 mg/kg daily oral gavage): 328% | Median Increase In Survival ([7]; CAL-27, 100 mg/kg daily oral gavage): >700% | single agent activity (tumor growth) [8]: Single agent activity of Compound 2R was demonstrated | C0 ([2]; 5 mg/kg, IV, 5 mpk): 25700 ng/mL | half-life ([2]; 5 mg/kg, IV, 5 mpk): 150 min | Cmax ([2]; 25 mg/kg, oral, 25 mpk): 21700 ng/mL | Tmax ([2]; 25 mg/kg, oral, 25 mpk): 4.17 h | half-life ([2]; 25 mg/kg, oral, 25 mpk): 294 min | increase in exposure (AUClast/D) compared to Comparative Compound 2 ([2]; mice, IV): ~3 fold | enhanced exposure relative to Comparative Compound 2 ([2]; mice, oral): 3 fold | Cl_obs ([2]; IV, 5 mpk): 1.2 mL/min/kg | F ([2]; oral, 25 mpk): 83% | C0 ([3]; 1 mg/kg, IV, 1 mpk): 4170 ng/mL | half-life ([3]; 1 mg/kg, IV, 1 mpk): 138 min | Cmax ([3]; 10 mg/kg, oral, 10 mpk): 4710 ng/mL | Tmax ([3]; 10 mg/kg, oral, 10 mpk): 2 h | half-life ([3]; 10 mg/kg, oral, 10 mpk): 240 min | Cl_obs ([3]; IV, 1 mpk): 4.81 mL/min/kg | F ([3]; oral, 10 mpk): 59% | increase in exposure (AUClast/D) compared to Comparative Compound 2 ([3]; monkeys, IV): ~3 fold | improvement in exposure (AUClast/D) relative to Comparative Compound 2 ([3]; monkeys, oral): > 74 fold
